{"source": "patent US20240317732A1", "about": "“A NEW MOLECULAR SCAFFOLD FOR TARGETING HRPN13” (THE UNITED STATES OF AMERICA AS REPRESENTED BY THE …, priority 2021, published 2024)", "key": {"hRpn13 Pru [1]": {"molecular_target": "T1, hRpn13 Pru (Homo sapiens (Human), UniProt Q16186)", "T1 sequence (Q16186 1-150)": "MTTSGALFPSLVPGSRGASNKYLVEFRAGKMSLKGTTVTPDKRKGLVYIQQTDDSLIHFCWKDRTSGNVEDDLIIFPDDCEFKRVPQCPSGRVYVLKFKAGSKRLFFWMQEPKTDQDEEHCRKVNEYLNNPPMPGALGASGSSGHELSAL", "assay": "Isothermal titration calorimetry (ITC) of hRpn13 Pru binding", "conditions": "25° C.", "procedure": "ITC experiments were performed at 25° C. on a MicroCal iTC200 system (Malvern, PA, USA). hRpn13 Pru, XL5, XL5 derivative, or RA190 were prepared in buffer C. One aliquot of 0.5 μL followed by 17 or 18 aliquots of 2.1 μL of 200 μM hRpn13 Pru was injected at 750 r.p.m. into a calorimeter cell (volume […]) that contained 20 μM XL5, XL5 derivative, or RA190. Blank experiments were performed by replacing XL5, XL5 derivative, or RA190 with buffer in the cell and the resulting data subtracted from the experimental data during analyses. The integrated interaction heat values were normalized as a function of protein concentration and the data were fit with MicroCal Origin 7.0-based software implementing the “One Set of Sites” model to yield binding affinity Ka (1/Kd), stoichiometry, and other thermodynamic parameters. Dissociation constants (Kd) as determined by ITC as well as relative binding affinities of selected compounds are presented n Table 1, while additional information on named compounds including structures, synthesis, and characterization is presented in Examples 3-9: […]"}, "hRpn13 Pru [2]": {"molecular_target": "T1, hRpn13 Pru", "assay": "Differential scanning fluorimetry, tryptophan quenching at 350 nm", "format": "binding", "conditions": "1 μM hRpn13 Pru, 20° C.", "excerpt": "We conducted in silico docking screens of commercial libraries containing in total 63 million compounds by using the hRpn13 Pru:hRpn2 structure and hRpn2-binding site of hRpn13 as a binding pocket. Twenty-two potential lead compounds were selected for validation by biophysical assays. hRpn13 W108 is partially exposed when free but buried by hRpn2, enabling tryptophan quenching by differential scanning fluorimetry (DSF at λ350) for assaying binding and this approach was used to screen for compound binding to this site. 20 μM compound (separately for twenty compounds) was incubated with 1 μM hRpn13 Pru and fluorescence emission at 350 nm measured. […] The compounds were separately added at 10-fold molar excess to 20 μM ^15N-labeled hRpn13 Pru and binding assessed at 25° C. by 2D NMR for samples dissolved in NMR buffer (20 mM sodium phosphate, 50 mM NaCl, 2 mM DTT, 10% DMSO-d6 (deuterated DMSO), pH 6.5). […] XL5 addition caused hRpn13 signals to shift from free state positions to an observable bound state whereas spectral changes were not induced by the other compounds tested. […]\nDSF experiments were performed on a PrometheusNT.48 instrument (NanoTemper Technologies, Germany) at 20° C. […] Each sample was loaded into three high sensitivity capillaries (NanoTemper, cat #PR-C006) and the emission of intrinsic tryptophan fluorescence at 350 nm was monitored."}, "RPMI 8226 cells": {"system": "RPMI 8226 cells", "assay": "MTT cell metabolism / cell viability assay in RPMI 8226", "format": "cell-based", "conditions": "RPMI 8226, 48 hours, up to 40 μM", "procedure": "Since previous hRpn13-targeting molecules induce apoptosis in multiple myeloma and colon cancer cells we tested whether XL5 restricts the RPMI 8226 multiple myeloma and HCT116 colon cancer cell lines by measuring metabolism with an MTT (3-(4,5-dimethylthiazol-2-yl)-2,5-diphenyltetrazolium bromide) assay. Experiments were also conducted in parallel with a HCT116 colon cancer cell line in which the exon encoding hRpn13 C88 is deleted, named trRpn13; this cell line expresses a truncated hRpn13 protein with a defective Pru and inability to bind the proteasome28. RPMI 8226 and WT (wild-type) or trRpn13 HCT116 cells seeded at 8,000 and 4,000 cells per well were treated with varying concentrations of XL5 extending to 40 μM and compared to cells incubated with equivalent amounts of DMSO vehicle control.\nHCT116 WT or trRpn13 cells were seeded at 4,000 cells/well whereas RPMI 8226 cells were seeded at 8,000 cells/well with RPMI 1640 medium (no phenol red, Thermo Fisher Scientific 11835030) containing 2% fetal bovine serum in 96-well plates. Cells were treated with 0.4% DMSO (as a control) and this concentration was maintained with XL5, XL5-PROTACs XL5-VHL, XL5-VHL-2, XL5-CRBN, or XL5-IAP, and E3 ligands VHL-Ac, thalidomide (Selleckchem, catalog NO. S1193), or IAP-Bz at 10 μM, 20 μM, 30 μM or 40 μM concentration. After 48 hours, 0.35 mg/mL MTT was added for 4 hours of incubation. Stop solution (40% DMF, 10% SDS (W/V), 25 mM HCl, 2.5% acetic acid in H2O) was added to the cells and incubated overnight. Absorbance at 570 nm was measured by using CLARIOstar (BMG LABTECH)."}, "[3]": {"assay": "Reactivity in mouse serum by LC-MS", "format": "in vitro ADME", "conditions": "0.2 μM, room temperature, 24-hour time period", "procedure": "To test for covalent interaction, an hRpn13 Pru sample was incubated with 10-fold molar excess XL5 or DMSO (as a vehicle control) and subjected to liquid chromatography-mass spectrometry (LC-MS). […] To test for general reactivity of XL5 towards exposed cysteines, 40 μM XL5 was incubated at 4° C. for two hours with 2 mM reduced L-glutathione serving as representative of a non-specific interactor with exposed cysteines. XL5-ligated glutathione was detected at only 2% abundance (FIG. 2B). Under identical conditions, 40 μM RA190 reacted with 2 mM reduced L-glutathione to yield products with one or two molecules ligated at 14% or 30% abundance, respectively. We also tested XL5 reactivity by incubating it at 0.2 μM with mouse serum (BioIVT) and monitoring the effect by LC-MS over a 24-hour time period to find only 6% reduction in the unligated compound.\nTo check for reactivity of XL5 in mouse serum, 0.2 μM XL5 was mixed with mouse serum (BioIVT) and aliquots of the spiked mixture left at room temperature for 0, 4, 8 and 24 hours. For each time point, six samples were extracted using 75% acetonitrile and 0.075% formic acid. The supernatant was transferred to polypropylene injection vials for LC-MS analysis. […]"}, "hRpn13 Pru [4]": {"molecular_target": "T1, hRpn13 Pru", "assay": "2D NMR (1H,15N HSQC) binding to 15N-labeled hRpn13 Pru", "conditions": "assessed by ITC and NMR", "excerpt": "We conducted in silico docking screens of commercial libraries containing in total 63 million compounds by using the hRpn13 Pru:hRpn2 structure and hRpn2-binding site of hRpn13 as a binding pocket. Twenty-two potential lead compounds were selected for validation by biophysical assays. hRpn13 W108 is partially exposed when free but buried by hRpn2, enabling tryptophan quenching by differential scanning fluorimetry (DSF at λ350) for assaying binding and this approach was used to screen for compound binding to this site. 20 μM compound (separately for twenty compounds) was incubated with 1 μM hRpn13 Pru and fluorescence emission at 350 nm measured. […] The compounds were separately added at 10-fold molar excess to 20 μM ^15N-labeled hRpn13 Pru and binding assessed at 25° C. by 2D NMR for samples dissolved in NMR buffer (20 mM sodium phosphate, 50 mM NaCl, 2 mM DTT, 10% DMSO-d6 (deuterated DMSO), pH 6.5). […]\nFor screening by ^1H, ^15N HSQC experiments, small molecule dissolved in DMSO-d6 was added to 20 μM or 250 μM ^15N-labeled hRpn13 Pru at a molar excess of 2-fold (for XL5) or 10-fold (for all compounds tested) in NMR buffer (20 mM sodium phosphate, 50 mM NaCl, 2 mM DTT, 10% DMSO-d6, pH 6.5). […] Three ^13C-half-filtered NOESY experiments were recorded with a 100 ms mixing time on asymmetrically labeled samples dissolved in NMR buffer. […]"}, "hRpn13 / hRpn13-Pru": {"system": "hRpn13 / hRpn13-Pru", "assay": "Immunoblot of hRpn13 species in RPMI 8226 cell lysates", "format": "cell-based, human", "conditions": "RPMI 8226 WT, 100 nM, 24 hours", "procedure": "HCT116 WT, HCT116 trRpn13, RPMI 8226 or 293T cells were collected and washed with PBS followed by lysing in 1% Triton-TBS lysis buffer (50 mM Tris-HCl, pH 7.5, 150 mM NaCl, 1 mM PMSF) supplemented with protease inhibitor cocktail (Roche). Total protein concentration was determined by bicinchoninic acid (Pierce). Protein lysates were prepared in 1χ LDS (ThermoFisher, NP0007) buffer with 100 mM DTT and heating at 70° C. for 10 min, loaded onto 4-12% Bis-Tris polyacrylamide gels (Life Technologies), subjected to SDS-PAGE and transferred to Invitrolon polyvinylidene difluoride membranes (Life Technologies). The membranes were blocked in Tris-buffered saline with 0.1% Tween-20 (TBST) supplemented with 5% skim milk, incubated with primary antibody, washed in TBST, incubated with secondary antibody and washed extensively in TBST. Pierce™ ECL Western Blotting Substrate (32106; Thermo Fisher Scientific) or Amersham™ ECL™ Primer Western Blotting Detection Reagent (cytiva) was used for antibody signal detection.\nTo test whether the XL5-PROTACs cause ubiquitination and degradation of hRpn13, lysates from RPMI 8226 (FIG. 5C) cells treated with 40 μM XL5 orXL5-PROTAC compared to DMSO vehicle control were immunoprobed for hRpn13 and β-actin (loading control)."}}, "data": [{"smiles": "Cl.N[C@@H](Cc1ccccc1)C(=O)N1C/C(=C/c2ccc(Cl)c(Cl)c2)C(=O)/C(=C\\c2ccc(Cl)c(Cl)c2)C1", "note": "[RA190, reference compound]", "values": [{"measurement": "binding detected by ITC", "setting": "hRpn13 Pru [1]", "value": "did not detect binding"}, {"measurement": "tryptophan fluorescence emission quenching at 350 nm", "setting": "hRpn13 Pru [2]", "value": "titration-dependent reduction in λ350 signal"}]}, {"smiles": "CC(=O)N[C@H](C(=O)N1C[C@H](O)C[C@H]1C(=O)N[C@@H](C)c1ccc(-c2scnc2C)cc1)C(C)(C)C", "note": "[VHL-Ac, reference compound]", "values": [{"measurement": "metabolic activity / cell viability (MTT)", "setting": "RPMI 8226 cells", "value": "did not affect metabolic activity"}]}, {"smiles": "Cc1ccc(C(=O)Nc2cccc(/C=C(\\C#N)C(=O)Nc3ccccc3C(=O)O)c2)cc1", "note": "[XL5]", "values": [{"measurement": "reduction in the unligated compound in mouse serum", "setting": "[3]", "value": 6, "unit": "%"}]}, {"smiles": "CNc1ccc(C(=O)Nc2cccc(/C=C(\\C#N)C(=O)Nc3ccccc3C(=O)O)c2)cc1", "note": "[XL24]", "values": [{"measurement": "Kd", "setting": "hRpn13 Pru [1]; 200 μM hRpn13 Pru into 20 μM compound, buffer C", "value": "1.74 ± 0.35", "unit": "µM"}, {"measurement": "change of affinity for hRpn13 Pru relative to XL5", "setting": "hRpn13 Pru [4]", "value": "little effect"}]}, {"smiles": "CC(C)C[C@H](NC(=O)[C@H](CCc1ccccc1)NC(=O)CN1CCOCC1)C(=O)N[C@@H](Cc1ccccc1)C(=O)N[C@@H](CC(C)C)C(=O)[C@@]1(C)CO1", "note": "[carfilzomib, reference compound]", "values": [{"measurement": "hRpn13-Pru level after proteasome inhibitor", "setting": "hRpn13 / hRpn13-Pru", "value": "reduced levels of hRpn13-Pru"}]}, {"smiles": "O=C1CCC(N2C(=O)c3ccccc3C2=O)C(=O)N1", "note": "(centres unmarked) [thalidomide, reference compound]", "values": [{"measurement": "metabolic activity / cell viability (MTT)", "setting": "RPMI 8226 cells", "value": "did not affect metabolic activity"}]}]}
